GI50 and TGI data for eleven molecules are collected here from PubChem BioAssay (NCI).

Several values for one entry are separate records, joined by “and”; a condition that tells them apart may be missing. Identical values can stand only once.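 Five compound concentrations were applied to cells in 96-well plates for 48 hours; endpoints were derived by simple linear interpolation of the resulting dose-response curve. At the GI50, growth is halved. TGI marks complete inhibition of growth.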

One experiment deals with K-562 leukemia. Briefly: growth of human tumour cells (NCI), 48 h.
With `Cn1cc(C2=C(c3cn(C)c4ccc(N)cc34)C(=O)NC2=O)c2ccccc21`, the GI50 was 1.92 µM and the TGI was > 25 µM.

For `S=C(N/N=C/c1cc(Cl)cc(Cl)c1)NC12CC3CC(CC(C3)C1)C2`, the GI50 is > 100 µM and the TGI was > 100 µM.

`CC(CO)[C@H]1OC(=O)C=C2[C@@]13O[C@@H]3[C@H]1OC(=O)[C@@]3(C)[C@H]4O[C@H]4C[C@@]2(C)[C@@H]13` (stereo not given in full): the TGI was > 100 µM.

Regarding `COc1cc(-c2oc3ccccc3c(=O)c2O)cc(OC)c1OC`, the TGI is > 100 µM.

In the case of `C/C(=N\O)c1ccc(Nc2cc(-n3nnc4ccccc43)nc3ccccc23)cc1`, the GI50 is 5.32 µM and the TGI was > 100 µM.

In the case of `C[C@]12CC[C@@H]3c4ccc(O)c([N+](=O)[O-])c4CC[C@H]3[C@@H]1CC[C@@H]2NS(=O)(=O)c1ccc(C(F)(F)F)cc1`, the GI50 was 2.02 µM and the TGI was found to be 5.84 µM.

For the molecule `Clc1ccc(COC(Cn2ccnc2)c2ccc(Cl)cc2Cl)cc1` (stereo not given), the GI50 was 2.8 µM; the TGI was 10.2 µM and 23.9 µM and 21.1 µM.

Take `Nc1c(C(=O)Nc2ccc([As](=O)(O)O)cc2)cnc2nnnn12`: the TGI was > 100 µM.

Consider `CC(C)n1c(/C=C/[C@@H](O)C[C@@H](O)CC(=O)O)c(-c2ccc(F)cc2)c2ccccc21`, for which the GI50 is 5.94 µM and 6.56 µM; the TGI was > 100 µM.

Regarding `CCOc1ccc(NCC2CC/C(=C\C=C\c3ccccc3)C2=O)cc1` (stereo not given), the TGI was > 100 µM.

Consider `N#Cc1ccc(-c2nc(C#N)c(N)o2)cc1`, for which the TGI is > 10 µM.

The subject of the next experiment is CAKI-1 renal. The experiment can be described thus: growth of human tumour cells (NCI), 48 h.
In the case of `Cn1cc(C2=C(c3cn(C)c4ccc(N)cc34)C(=O)NC2=O)c2ccccc21`, the GI50 was 4.85 µM and the TGI was > 25 µM.

For the molecule `S=C(N/N=C/c1cc(Cl)cc(Cl)c1)NC12CC3CC(CC(C3)C1)C2`, the GI50 is 3.6 µM and the TGI turned out to be 92.8 µM.

The molecule `CC(CO)[C@H]1OC(=O)C=C2[C@@]13O[C@@H]3[C@H]1OC(=O)[C@@]3(C)[C@H]4O[C@H]4C[C@@]2(C)[C@@H]13` (stereo not given in full) returned a TGI of 8.25 µM.

On to `COc1cc(-c2oc3ccccc3c(=O)c2O)cc(OC)c1OC`, for which the TGI was > 100 µM.

Take `C/C(=N\O)c1ccc(Nc2cc(-n3nnc4ccccc43)nc3ccccc23)cc1`: the GI50 is 4.26 µM and the TGI was 13.7 µM.

On to `C[C@]12CC[C@@H]3c4ccc(O)c([N+](=O)[O-])c4CC[C@H]3[C@@H]1CC[C@@H]2NS(=O)(=O)c1ccc(C(F)(F)F)cc1`, for which the GI50 is 2.17 µM and the TGI came to 6.24 µM.

Consider `Clc1ccc(COC(Cn2ccnc2)c2ccc(Cl)cc2Cl)cc1` (stereo not given), for which the GI50 is 2.05 µM; the TGI was 9.58 µM and 24.9 µM and 23.6 µM.

For `Nc1c(C(=O)Nc2ccc([As](=O)(O)O)cc2)cnc2nnnn12`, the TGI was > 100 µM.

For the molecule `CC(C)n1c(/C=C/[C@@H](O)C[C@@H](O)CC(=O)O)c(-c2ccc(F)cc2)c2ccccc21`, the GI50 is 0.594 µM and 0.542 µM; the TGI is 2.99 µM and 2.69 µM.

Take `CCOc1ccc(NCC2CC/C(=C\C=C\c3ccccc3)C2=O)cc1` (stereo not given): the TGI is > 40.8 µM.

For `N#Cc1ccc(-c2nc(C#N)c(N)o2)cc1`, the TGI is > 10 µM.

The subject of the next experiment is SR leukemia. The experiment can be described thus: growth of human tumour cells (NCI), 48 h.
For `Cn1cc(C2=C(c3cn(C)c4ccc(N)cc34)C(=O)NC2=O)c2ccccc21`, the GI50 was 2.05 µM and the TGI was > 25 µM.

Consider `S=C(N/N=C/c1cc(Cl)cc(Cl)c1)NC12CC3CC(CC(C3)C1)C2`, for which the GI50 is 5.02 µM and the TGI is > 32 µM.

With `CC(CO)[C@H]1OC(=O)C=C2[C@@]13O[C@@H]3[C@H]1OC(=O)[C@@]3(C)[C@H]4O[C@H]4C[C@@]2(C)[C@@H]13` (stereo not given in full), the TGI stood at 0.982 µM.

For `COc1cc(-c2oc3ccccc3c(=O)c2O)cc(OC)c1OC`, the TGI was > 24.8 µM.

On to `C/C(=N\O)c1ccc(Nc2cc(-n3nnc4ccccc43)nc3ccccc23)cc1`, for which the GI50 is 18.7 µM and the TGI came to 74.9 µM.

Regarding `C[C@]12CC[C@@H]3c4ccc(O)c([N+](=O)[O-])c4CC[C@H]3[C@@H]1CC[C@@H]2NS(=O)(=O)c1ccc(C(F)(F)F)cc1`, the GI50 is 1.65 µM and the TGI worked out at 4.14 µM.

As to `Clc1ccc(COC(Cn2ccnc2)c2ccc(Cl)cc2Cl)cc1` (stereo not given), the GI50 was 2.79 µM; the TGI was 10.6 µM and 21.6 µM and 14.7 µM.

Regarding `Nc1c(C(=O)Nc2ccc([As](=O)(O)O)cc2)cnc2nnnn12`, the TGI is > 100 µM.

In the case of `CC(C)n1c(/C=C/[C@@H](O)C[C@@H](O)CC(=O)O)c(-c2ccc(F)cc2)c2ccccc21`, the GI50 is 2.16 µM and 2.8 µM; the TGI is > 61.7 µM.

Regarding `CCOc1ccc(NCC2CC/C(=C\C=C\c3ccccc3)C2=O)cc1` (stereo not given), the TGI was > 33.3 µM.

As for `N#Cc1ccc(-c2nc(C#N)c(N)o2)cc1`, the TGI is > 10 µM.

In the next experiment the test system is PC-3 prostate. The experiment can be described thus: growth of human tumour cells (NCI), 48 h.
On to `Cn1cc(C2=C(c3cn(C)c4ccc(N)cc34)C(=O)NC2=O)c2ccccc21`, for which the GI50 is 9 µM and the TGI is > 25 µM.

With `S=C(N/N=C/c1cc(Cl)cc(Cl)c1)NC12CC3CC(CC(C3)C1)C2`, the GI50 was > 30.2 µM and the TGI was > 100 µM.

The molecule `CC(CO)[C@H]1OC(=O)C=C2[C@@]13O[C@@H]3[C@H]1OC(=O)[C@@]3(C)[C@H]4O[C@H]4C[C@@]2(C)[C@@H]13` (stereo not given in full) registered a TGI of 23.1 µM.

With `COc1cc(-c2oc3ccccc3c(=O)c2O)cc(OC)c1OC`, the TGI is > 100 µM.

In the case of `C/C(=N\O)c1ccc(Nc2cc(-n3nnc4ccccc43)nc3ccccc23)cc1`, the GI50 is 4.5 µM and the TGI came out at 20.5 µM.

With `C[C@]12CC[C@@H]3c4ccc(O)c([N+](=O)[O-])c4CC[C@H]3[C@@H]1CC[C@@H]2NS(=O)(=O)c1ccc(C(F)(F)F)cc1`, the GI50 is 1.65 µM and the TGI worked out at 4 µM.

As for `Clc1ccc(COC(Cn2ccnc2)c2ccc(Cl)cc2Cl)cc1` (stereo not given), the GI50 is 1.8 µM; the TGI is 8.78 µM and 23.4 µM and 21.9 µM.

Regarding `Nc1c(C(=O)Nc2ccc([As](=O)(O)O)cc2)cnc2nnnn12`, the TGI is > 100 µM.

For the molecule `CC(C)n1c(/C=C/[C@@H](O)C[C@@H](O)CC(=O)O)c(-c2ccc(F)cc2)c2ccccc21`, the GI50 was 0.371 µM and 0.65 µM; the TGI was > 100 µM.

`CCOc1ccc(NCC2CC/C(=C\C=C\c3ccccc3)C2=O)cc1` (stereo not given): the TGI turned out to be 49.8 µM.

As to `N#Cc1ccc(-c2nc(C#N)c(N)o2)cc1`, the TGI is > 10 µM.

The subject of a further experiment is SNB-75 CNS. Briefly: growth of human tumour cells (NCI), 48 h.
Turning to `Cn1cc(C2=C(c3cn(C)c4ccc(N)cc34)C(=O)NC2=O)c2ccccc21`, the GI50 is 1.63 µM and the TGI is > 21.2 µM.

In the case of `S=C(N/N=C/c1cc(Cl)cc(Cl)c1)NC12CC3CC(CC(C3)C1)C2`, the GI50 was 2 µM and the TGI stood at 5.46 µM.

With `CC(CO)[C@H]1OC(=O)C=C2[C@@]13O[C@@H]3[C@H]1OC(=O)[C@@]3(C)[C@H]4O[C@H]4C[C@@]2(C)[C@@H]13` (stereo not given in full), the TGI is 6.05 µM.

Molecule `COc1cc(-c2oc3ccccc3c(=O)c2O)cc(OC)c1OC` displayed a TGI of 25.6 µM.

Take `C/C(=N\O)c1ccc(Nc2cc(-n3nnc4ccccc43)nc3ccccc23)cc1`: the GI50 was 22.8 µM and the TGI stood at 99.2 µM.

As to `C[C@]12CC[C@@H]3c4ccc(O)c([N+](=O)[O-])c4CC[C@H]3[C@@H]1CC[C@@H]2NS(=O)(=O)c1ccc(C(F)(F)F)cc1`, the GI50 is 1.43 µM and the TGI amounted to 5.73 µM.

Regarding `Clc1ccc(COC(Cn2ccnc2)c2ccc(Cl)cc2Cl)cc1` (stereo not given), the GI50 is 4.97 µM; the TGI is 17.5 µM and 26.8 µM and 30.1 µM.

`Nc1c(C(=O)Nc2ccc([As](=O)(O)O)cc2)cnc2nnnn12`: the TGI was > 100 µM.

Consider `CC(C)n1c(/C=C/[C@@H](O)C[C@@H](O)CC(=O)O)c(-c2ccc(F)cc2)c2ccccc21`, for which the GI50 is 1.43 µM and 0.859 µM; the TGI is > 100 µM.

In turn, `CCOc1ccc(NCC2CC/C(=C\C=C\c3ccccc3)C2=O)cc1` (stereo not given) displayed a TGI of 59.9 µM.

As to `N#Cc1ccc(-c2nc(C#N)c(N)o2)cc1`, the TGI was > 10 µM.
